The record followed here is patent publication US9080216B2, “Genetic changes in ATM and ATR/CHEK1 as prognostic indicators in cancer” (University of Pittsburgh-of the CommonWealth System of …, priority 2007, dated 2015).

Holding throughout (assay type): cell-based, human
The test system of one test is UPCI:SCC084. The test is described as follows: Clonogenic cell survival assay. On the procedure: (§1) Clonogenic Cell Survival Assay. To assess cell survival in response to ionizing radiation, clonogenic survival assays were performed. Two thousand cells were seeded in 60 mm Petri dishes and allowed to adhere overnight. […] The culture medium was replaced at the end of 7 days. Untreated cells cultured in parallel were used to determine relative plating efficiency. After 12 days, the cells were fixed with 70% ethyl alcohol and stained with Giemsa (Sigma, St. Louis, Mo.) and the number of colonies was assessed. A colony was defined as a cluster of ≧50 cells, having formed from a single cell. All experiments were performed in triplicate, and the error reported as one standard deviation from the mean.

Another test has as its system OSCC. Put plainly: Cell cycle analysis by flow cytometry after caffeine and irradiation. The conditions noted are these: following irradiation. On the procedure: Cell Cycle Analysis by Flow Cytometry. […] These cells were washed with phosphate-buffered saline (PBS), and fixed with 70% ethanol. The cells were then treated with 80 μg/ml RNase A and 50 μg/ml propidium iodide (Invitrogen-Molecular Probes, Carlsbad, Calif.) for 45 min at 37° C. The stained cells were analyzed using a Coulter Epics XL Flow Cytometer in the UPCI Flow Cytometry Facility.

The subject of test [1] is UPCI:SCC104. The test is described as follows: Clonogenic cell survival assay. As to the method: as §1
SiRNA Transfection. ATR or CHEK1 inhibitions were carried out using the respective siRNAs for a specific knockout. RNA interference of ATR and CHEK1 was performed using Smartpool ATR and CHEK1 duplexes respectively, obtained from Dharmacon (Lafayette, Colo.). Nonspecific (scrambled) control duplexes (Dharmacon) were used for nonspecific siRNA treatment. The duplexes were reconstituted in 1×DNA-free RNA re-suspension buffer provided by Dharmacon and aliquoted according to the manufacturer's instructions. For transfection, the OSCC cell lines were seeded in 60 mm dishes or T25 flasks and transfected with siRNA duplexes using Lipofectamine 2000 (Invitrogen) according to the manufacturer's instructions. The individual siRNA duplex sequences are enumerated in Appendix B. The final working siRNA concentration achieved was between 90-100 nM. We used cells treated with no vector (untreated), empty vector (mock-treated), cells transfected with a nonspecific siRNA, and a specific ATR or CHEK1 siRNA for all of our experiments. At the end of 48 h post-transfection, appropriate treatments (ionizing radiation or aphidicolin treatment) were carried out as described earlier.

Test [2] deals with UPCI:SCC104. Put plainly: Cell cycle analysis by flow cytometry. The conditions noted are these: 1 mM or 5 mM caffeine 1 h prior to 5 Gy IR. On the procedure:
Cell Cycle Analysis by Flow Cytometry. […] These cells were washed with phosphate-buffered saline (PBS), and fixed with 70% ethanol. The cells were then treated with 80 μg/ml RNase A and 50 μg/ml propidium iodide (Invitrogen-Molecular Probes, Carlsbad, Calif.) for 45 min at 37° C. The stained cells were analyzed using a Coulter Epics XL Flow Cytometer in the UPCI Flow Cytometry Facility. SiRNA Transfection. ATR or CHEK1 inhibitions were carried out using the respective siRNAs for a specific knockout. RNA interference of ATR and CHEK1 was performed using Smartpool ATR and CHEK1 duplexes respectively, obtained from Dharmacon (Lafayette, Colo.). Nonspecific (scrambled) control duplexes (Dharmacon) were used for nonspecific siRNA treatment. The duplexes were reconstituted in 1×DNA-free RNA re-suspension buffer provided by Dharmacon and aliquoted according to the manufacturer's instructions. For transfection, the OSCC cell lines were seeded in 60 mm dishes or T25 flasks and transfected with siRNA duplexes using Lipofectamine 2000 (Invitrogen) according to the manufacturer's instructions. The individual siRNA duplex sequences are enumerated in Appendix B. The final working siRNA concentration achieved was between 90-100 nM. […]
(In general: Flow cytometry measures light scatter and fluorescence of single cells or particles in a stream.)

The mark [3] stands for this setting: different doses of caffeine, compared to UPCI:SCC066, 105 and control NHOK.
Where [4] appears, read: cell lines with an upregulated ATR-CHEK1 pathway including GM09607 (AT cells).

Entries after “also recorded” stand apart in the source; their conditions may differ.

On to `Cn1c(=O)c2c(ncn2C)n(C)c1=O` [caffeine], for which the “reduction in colony survival” value in the test on UPCI:SCC084 (0.5 mM caffeine, UPCI:SCC084, absence of any DNA damaging agents) is on record as more than 50%; in the test with UPCI:SCC104 [1] (0.5 mM caffeine, UPCI:SCC104, absence of any DNA damaging agents), more than 50%. The colony survival result in the test with UPCI:SCC084 (1 mM caffeine, UPCI:SCC084) is reported as “complete absence of survival; also recorded: Complete inhibition of colony formation”; in the test on UPCI:SCC104 [1] (1 mM caffeine, UPCI:SCC104) it was “complete absence of survival”. Moreover, the “sensitivity to caffeine (clonogenic cell survival)” value in the test on UPCI:SCC084 (setting [3]) and with UPCI:SCC104 [1] (setting [3]) was “increased sensitivity” throughout. Further, in the test on OSCC (cell lines with an intact G1 checkpoint and normal ATR-CHEK1 expression), the “sensitivity to caffeine (cell cycle profile)” value is “did not demonstrate any sensitivity”. Besides, the “accumulation of cells in the S and G2M phases” value with OSCC (setting [4]) is reported as “clearly reduced”. For the same compound, in the test with OSCC (setting [4]), the “sub-G0 population (dead cells)” value is “increased”. Moreover, the G2M accumulation entry in the test with UPCI:SCC104 [2] is reported as “dose dependent reduction”. The “sub G0 peak (dead cells)” value in the test with UPCI:SCC104 [2] is reported as “increase”.
